Measured values published in patent US20250327046A1, “ROLE OF POLYPHOSPHATES IN NEUROLOGICAL DISORDERS” (UNIVERSITY OF MASSACHUSETTS, priority 2021, published 2025).

Test system: mutSOD1 mice
Assay: Survival of mutSOD1 mice (mouse model of ALS)
Type: in vivo
Settings: FIG. 10B, polyP neutralizing cationic polyamine
Description: Hemizygous transgenic mice carrying mutant human SOD1^G93A (high copy number; B6SJL; Cat. #002726), wild-type human SOD1^WT (B6SJL; Cat. #002297) and TARDBP^A315T (C57BL/6J; Cat. #010700) transgenes were obtained from Jackson Laboratories (Bar Harbor, Maine, USA). Hemizygous transgenic mice (background B6SJLF/J) carrying C9ORF72 hexanucleotide repeats (˜500) in intron were generated by Robert Brown (Peters et al., 2015). All mice were maintained and bred at the animal facility of Universidad Andres Bello. The presence of the human SOD1transgene, the human TARDBP transgene and the human C9ORF72 transgene were validated by polymerase chain reaction as previously described. Transgenic males were crossed with WT females (B6SJL or C57BL/6J) from the corresponding background; these non-transgenic littermates (NTg) were used as internal controls for all experiments. The SOD1^G93A (mutSOD1) mice, but not the hSOD1WT (wtSOD1) mice, develop signs of neuromuscular deficits (tremor of the legs and loss of extension reflex of the hind paws) starting at 3 months of age and have an average lifespan of 133-147 days. […]
In this Example, polyP neutralizing molecules including a dendrimer (e.g., G3-PAMAM-NH2) and a cationic polyamine (e.g., spermidine) were evaluated as potential therapies for neurological disorders using a mouse model of ALS. […]

NCCCCNCCCN [spermidine]
survival of mutSOD1 mice (in words): prolonged survival
